Data published in patent US20170157301A1, “LEOLIGIN DERIVATIVES AS SMOOTH MUSCLE CELL PROLIFERATION INHIBITORS” (TECHNISCHE UNIVERSITAET WIEN, priority 2014, published 2017).

Test system: SMCs in relation to ECs
Assay: activity ratio: efficiency towards SMCs / efficiency towards ECs
Type: cell-based
Conditions: activity ratio class; order in Table 1 follows the calculated values
Method: For determination of vascular SMC proliferation, 0.5×10^4 viable rat aortic SMCs per well were seeded in SMC growth medium (DMEM/F12 medium with 20% serum, 30 μg/mL Gentamicin and 15 ng/mL Amphotericin) in 96-well plates. 24 h later, the medium was removed, the cells were washed once with SMC starvation medium (DMEM/F12 medium with 0.1% serum, 0.2% BSA, 30 μg/mL Gentamicin and 15 ng/mL Amphotericin) and incubated in starvation medium for further 24 h.
The quiescent cells were then pretreated for 30 min with the test compounds and induced to proliferate with 20 ng/mL platelet-derived growth factor (PDGF). Unstimulated cells were utilized for normalization and estimation of the basal level of proliferation. The final concentration of the solvent vehicle, dimethyl sulfoxide (DMSO), was the same (0.1%) in all wells. 48 h later, the SMC proliferation was quantified by resazurin dye conversion for 2 h as previously described (H. Joa et al., J. Nat. Prod. 74(6), 1513-6 (2011)).
For determination of endothelial cell proliferation, 0.5×10^4 HUVECtert immortalized human umbilical vein endothelial cells (H. B. Schiller et al., Mol. Biol. Cell. 20(3), 745-756 (2009)) were seeded in 96-well plates for 24 h in HUVEC Complete Medium (EBM™ growth medium supplemented with 10% fetal bovine serum, EBM™ SingleQuots (Lonza, Basel, Switzerland), 100 U/mL benzylpenicillin, 100 μg/mL streptomycin, and 1% amphotericin). Afterwards, the medium was exchanged with fresh HUVEC Complete Medium and cells were treated with the indicated compounds for 48 h. After the end of the incubation period, the medium was removed, the cells were washed once with 200 μL/well PBS, and treated with 150 μL HUVEC Complete Medium containing 10 μg/mL resazurin. 2 h later, the fluorescence was measured at a wavelength of 580 nm, with excitation wavelength 535 nm in a 96-well plate reader (Tecan GENios Pro; Tecan Group Ltd., Mannedorf, Switzerland).
In every case, the percentage of viable cells was subtracted from 1, in order to obtain a measure of efficiency of the test compounds towards each particular type of cells, and subsequently, the efficiency quotient towards SMCs and ECs was calculated and taken as the “activity ratio” and thus as a measure of selective efficiency of each test compound towards SMCs in relation to ECs. For example, the synthetic Leoligin with the bio ID 2418 prepared in Comparative Example 27 as compound 10-22 gave the following results:
Due to the usual fluctuations in determining surviving cells, which amount to approximately ±10%, and due to the relatively strong resulting fluctuations in calculating quotients—especially if the inhibitory effect of said novel compounds towards ECs is very poor—said threshold value of 1.50 for the activity ratio, as already mentioned above, was introduced.
In the following, a table listing every compound prepared in examples and comparative Examples for which an activity ratio (a.r.) of >1.0 was determined, is given.

Row | SMILES | a.r. code
1 | COc1cc([C@H]2OC[C@H](Cc3ccc(C(C)(C)C)cc3)[C@@H]2CO)cc(OC)c1OC [Comparative Example 13, ((2S,3R,4R)-4-(4-(tert-butyl)benzyl)-2-(3,4,5-trimethoxyphenyl)tetrahydrofuran-3-yl)methanol] | V (1.0 < a.r. < 1.50)
2 | C/C=C(/C)C(=O)OC[C@H]1[C@@H](Cc2ccc(C(F)(F)F)cc2)CO[C@@H]1c1ccc(OC)c(OC)c1 [Comparative Example 24, (Z)-((2S,3R,4R)-2-(3,4-dimethoxyphenyl)-4-(4-(trifluoromethyl)benzyl)tetra-hydrofuran-3-yl)methyl 2-methylbut-2-enoate] | V (1.0 < a.r. < 1.50)
3 | C/C=C(/C)C(=O)OC[C@H]1[C@@H](Cc2ccc(OC)c(OC)c2)CO[C@@H]1c1ccc(F)cc1 [Comparative Example 26, (Z)-((2S,3R,4R)-4-(3,4-dimethoxybenzyl)-2-(4-fluorophenyl)tetrahydrofuran-3-yl)methyl 2-methylbut-2-enoate] | V (1.0 < a.r. < 1.50)
4 | C/C=C(/C)C(=O)OC[C@H]1[C@@H](Cc2ccc(OC)c(OC)c2)CO[C@@H]1c1ccc(OC)cc1 [Comparative Example 28, (Z)-((2S,3R,4R)-4-(3,4-dimethoxybenzyl)-2-(4-methoxyphenyl)tetrahydrofuran-3-yl)methyl 2-methylbut-2-enoate] | V (1.0 < a.r. < 1.50)
5 | C/C=C(/C)C(=O)OC[C@H]1[C@@H](Cc2ccc(OC)cc2)CO[C@@H]1c1ccccc1 [Comparative Example 29, (Z)-((2S,3R,4R)-4-(4-methoxybenzyl)-2-phenyltetrahydrofuran-3-yl)methyl 2-methylbut-2-enoate] | V (1.0 < a.r. < 1.50)
6 | C/C=C(/C)C(=O)OC[C@H]1[C@@H](Cc2ccc(OC)cc2)CO[C@@H]1c1ccc(F)cc1 [Comparative Example 30, (Z)-((2S,3R,4R)-2-(4-fluorophenyl)-4-(4-methoxybenzyl)tetrahydrofuran-3-yl)-methyl 2-methylbut-2-enoate] | V (1.0 < a.r. < 1.50)
7 | C/C=C(/C)C(=O)OC[C@H]1[C@@H](Cc2ccccc2)CO[C@@H]1c1cc(OC)c(OC)c(OC)c1 [Comparative Example 31, (Z)-((2S,3R,4R)-4-benzyl-2-(3,4,5-trimethoxyphenyl)tetrahydrofuran-3-yl)-methyl 2-methylbut-2-enoate] | V (1.0 < a.r. < 1.50)
8 | C/C=C(/C)C(=O)OC[C@H]1[C@@H](Cc2ccc(C(F)(F)F)cc2)CO[C@@H]1c1cc(OC)c(OC)c(OC)c1 [Comparative Example 32, (Z)-((2S,3R,4R)-4-(4-(trifluoromethyl)benzyl)-2-(3,4,5-trimethoxyphenyl)-tetrahydrofuran-3-yl)methyl 2-methylbut-2-enoate] | V (1.0 < a.r. < 1.50)
9 | C/C=C(/C)C(=O)OC[C@H]1[C@@H](Cc2ccc(OC)cc2)CO[C@@H]1c1cc(OC)c(OC)c(OC)c1 [Comparative Example 33, (Z)-((2S,3R,4R)-4-(4-methoxybenzyl)-2-(3,4,5-trimethoxyphenyl)tetrahydro-furan-3-yl)methyl 2-methylbut-2-enoate] | V (1.0 < a.r. < 1.50)
10 | C/C=C(/C)C(=O)OC[C@H]1[C@@H](Cc2ccc(C)cc2)CO[C@@H]1c1cc(OC)c(OC)c(OC)c1 [Comparative Example 34, (Z)-((2S,3R,4R)-4-(4-methylbenzyl)-2-(3,4,5-trimethoxyphenyl)tetrahydrofuran-3-yl)methyl 2-methylbut-2-enoate] | V (1.0 < a.r. < 1.50)
11 | C/C=C(\C)C(=O)OC[C@H]1[C@@H](Cc2ccc(OC)c(OC)c2)CO[C@@H]1c1ccc(OC)c(OC)c1 [Comparative Example 35, (E)-((2S,3R,4R)-4-(3,4-dimethoxybenzyl)-2-(3,4-dimethoxyphenyl)tetrahydro-furan-3-yl)methyl 2-methylbut-2-enoate] | V (1.0 < a.r. < 1.50)
12 | COc1ccc(C[C@H]2CO[C@H](c3ccc(OC)c(OC)c3)[C@H]2COC(=O)C2CCCC2)cc1OC [Comparative Example 36, ((2S,3R,4R)-4-(3,4-dimethoxybenzyl)-2-(3,4-dimethoxyphenyl)tetrahydrofuran-3-yl)methyl cyclopentanecarboxylate] | V (1.0 < a.r. < 1.50)
13 | COc1ccc(C[C@H]2CO[C@H](c3ccc(OC)c(OC)c3)[C@H]2COC(=O)C2CCCCC2)cc1OC [Comparative Example 37, ((2S,3R,4R)-4-(3,4-dimethoxybenzyl)-2-(3,4-dimethoxyphenyl)tetrahydrofuran-3-yl)methyl cyclohexanecarboxylate] | V (1.0 < a.r. < 1.50)
14 | COc1ccc(C[C@H]2CO[C@H](c3ccc(OC)c(OC)c3)[C@H]2COC(=O)c2ccc3ccccc3c2)cc1OC [Comparative Example 38, ((2S,3R,4R)-4-(3,4-dimethoxybenzyl)-2-(3,4-dimethoxyphenyl)tetrahydrofuran-3-yl)methyl 2-naphthoate] | V (1.0 < a.r. < 1.50)
15 | COc1cc([C@H]2OC[C@H](Cc3ccc(C)cc3)[C@@H]2COC(=O)C2CCCC2)cc(OC)c1OC [Comparative Example 39, ((2S,3R,4R)-4-(4-methylbenzyl)-2-(3,4,5-trimethoxyphenyl)tetrahydrofuran-3-yl)methyl cyclopentanecarboxylate] | V (1.0 < a.r. < 1.50)
16 | COc1ccc([C@H]2OC[C@H](Cc3ccc(C(F)(F)F)cc3)[C@@H]2COC(=O)c2ccccc2C)cc1OC [Comparative Example 40, ((2S,3R,4R)-2-(3,4-dimethoxyphenyl)-4-(4-(trifluoromethyl)benzyl)tetrahydro-furan-3-yl)methyl 2-methylbenzoate] | V (1.0 < a.r. < 1.50)
17 | COc1ccc(C[C@H]2CO[C@H](c3ccc(OC)c(OC)c3)[C@H]2COC(=O)CC(C)C)cc1OC [Comparative Example 41, ((2S,3R,4R)-4-(3,4-dimethoxybenzyl)-2-(3,4-dimethoxyphenyl)tetrahydrofuran-3-yl)methyl 3-methylbutanoate] | V (1.0 < a.r. < 1.50)
18 | COc1ccc(C[C@H]2CO[C@H](c3ccc(OC)c(OC)c3)[C@H]2COC(=O)CC(C)(C)C)cc1OC [Comparative Example 42, ((2S,3R,4R)-4-(3,4-dimethoxybenzyl)-2-(3,4-dimethoxyphenyl)tetrahydrofuran-3-yl)methyl 3,3-dimethylbutanoate] | V (1.0 < a.r. < 1.50)
19 | COc1ccc(C[C@H]2CO[C@H](c3ccc(F)cc3)[C@H]2COC(=O)CC(C)(C)C)cc1OC [Comparative Example 43, ((2S,3R,4R)-4-(3,4-dimethoxybenzyl)-2-(4-fluorophenyl)tetrahydrofuran-3-yl)-methyl 3,3-dimethylbutanoate] | V (1.0 < a.r. < 1.50)
20 | CCC(CC)C(=O)OC[C@H]1[C@@H](Cc2ccc(OC)c(OC)c2)CO[C@@H]1c1ccc(OC)c(OC)c1 [Comparative Example 44, ((2S,3R,4R)-4-(3,4-dimethoxybenzyl)-2-(3,4-dimethoxyphenyl)tetrahydrofuran-3-yl)methyl 2-ethylbutanoate] | V (1.0 < a.r. < 1.50)
21 | COc1ccc(C[C@H]2CO[C@H](c3ccc(OC)c(OC)c3)[C@H]2COC(=O)C(C)(C)C)cc1OC [Comparative Example 45, ((2S,3R,4R)-4-(3,4-dimethoxybenzyl)-2-(3,4-dimethoxyphenyl)tetrahydrofuran-3-yl)methyl pivalate] | V (1.0 < a.r. < 1.50)
22 | COc1ccc(C[C@H]2CO[C@H](c3cc(OC)c(OC)c(OC)c3)[C@H]2COC(=O)C2=CCCCC2)cc1OC [Comparative Example 46, ((2S,3R,4R)-4-(3,4-dimethoxybenzyl)-2-(3,4,5-trimethoxyphenyl)tetrahydro-furan-3-yl)methyl cyclohex-1-enecarboxylate] | V (1.0 < a.r. < 1.50)
23 | COc1ccc([C@H]2OC[C@H](Cc3ccc(C(C)(C)C)cc3)[C@@H]2CO)cc1OC [Example 1, ((2S,3R,4R)-4-(4-(tert-butyl)benzyl)-2-(3,4-dimethoxyphenyl)tetrahydrofuran-3-yl)methanol] | A (a.r. ≧ 1.50)
24 | COc1ccc([C@H]2OC[C@H](Cc3ccc(C)cc3)[C@@H]2CO)cc1OC [Example 2, ((2S,3R,4R)-2-(3,4-dimethoxyphenyl)-4-(4-methylbenzyl)tetrahydrofuran-3-yl)-methanol] | AAA (a.r. ≧ 5.0)
